Type in all cases: functional
The species named for assay [1] is Mus musculus. The assay can be described thus: Effective dose required for anticonvulsive activity in pentylenetetrazole (PTZ) test.
For assay [2], the species on record is Mus musculus. Put plainly: Effective dose required for anticonvulsive activity in maximal electroshock seizure (MES) test. (In the maximal electroshock model the usual endpoint is tonic extension of the hind limbs.)
The species entered for assay [3] is Mus musculus. The assay can be described thus: Anticonvulsive activity in picrotoxin (PCR) induced seizure test.
Assay [4] is filed under the species Mus musculus. Put plainly: Effective dose required for anticonvulsive activity in bicuculline (BIC) test.
The subject of assay [5] is Mus musculus. The assay can be described thus: Protection from picrotoxin-induced (0.27 mmol/kg) convulsion over 9 hr at 100 mg/kg in 4 mice.
In assay [6] the test system is Mus musculus. Put plainly: Protection from picrotoxin-induced (0.27 mmol/kg) convulsion over 16 hr at 100 mg/kg in 4 mice.
Assay [7] deals with Mus musculus. Put plainly: Protection from picrotoxin-induced (0.27 mmol/kg) convulsion over 6 hr at 100 mg/kg in 4 mice.
Assay [8] deals with Mus musculus. The assay can be described thus: Protection from picrotoxin-induced (0.27 mmol/kg) convulsion over 3 hr at 100 mg/kg in 4 mice.
The species named for assay [9] is Mus musculus. The assay can be described thus: Anticonvulsive activity in picrotoxin (PCR) induced seizure test (ineffective).
The subject of assay [10] is Mus musculus. Put plainly: Effective dose required for anticonvulsive activity in pentylenetetrazole (PTZ) test at >0.1 mmol/kg.
The species entered for assay [11] is Mus musculus. Put plainly: Effective dose required for anticonvulsive activity in bicuculline (BIC) test; Not effective.
Assay [12] is filed under the species Mus musculus. The assay can be described thus: Effective dose required for anticonvulsive activity in maximal electroshock seizure (MES) test; Not effective.
For assay [13], the species on record is Mus musculus. The assay can be described thus: Effective dose required for anticonvulsive activity in pentylenetetrazole (PTZ) test; Not effective.

Structures are written as SMILES.

As for `C=CC(CCC(=O)OC)NC(=O)C1CCCNC1` (stereo not drawn), the ED50 was 410 µmol/kg in the assay listed under Mus musculus [1], more than 540 µmol/kg in the assay listed under Mus musculus [2], 260 µmol/kg in the assay filed under Mus musculus [3] and 310 µmol/kg in the assay filed under Mus musculus [4].

With `C=CC(N)CCC(=O)N1CCC(C(=O)OC)CC1` (stereo not drawn), the “No. of mice protected” value in the assay on Mus musculus [5] is given as 0; with Mus musculus [6], 0; in the assay with Mus musculus [7], 2; with Mus musculus [8], 2. Besides, the ED50 was 320 µmol/kg in the assay listed under Mus musculus [1], more than 540 µmol/kg in the assay listed under Mus musculus [2], 260 µmol/kg in the assay filed under Mus musculus [3] and 150 µmol/kg in the assay listed under Mus musculus [4].

With `C=CC(N)CCC(=O)N1CCCC(C(=O)OC)C1` (stereo not drawn), the “No. of mice protected” value was determined as 0 in the assay on Mus musculus [5], 0 with Mus musculus [6], 0 with Mus musculus [7] and 2 in the assay with Mus musculus [8]. The ED50 is 150 µmol/kg in the assay listed under Mus musculus [1], more than 540 µmol/kg in the assay filed under Mus musculus [2], 100 µmol/kg in the assay filed under Mus musculus [3] and 140 µmol/kg in the assay listed under Mus musculus [4].

Take `C=CC(CCC(=O)OC)NC(=O)C1CCNCC1` (stereo not drawn): the ED50 in the assay filed under Mus musculus [1] is more than 540 µmol/kg; in the assay listed under Mus musculus [2], more than 540 µmol/kg; in the assay listed under Mus musculus [3], 390 µmol/kg; in the assay listed under Mus musculus [4], 460 µmol/kg.

As for `C=CC(N)CCC(=O)N1CCCC1=O` (stereo not drawn), the ED50 in the assay listed under Mus musculus [1] was more than 540 µmol/kg; in the assay filed under Mus musculus [2] it was more than 540 µmol/kg; in the assay filed under Mus musculus [3], 260 µmol/kg; in the assay filed under Mus musculus [4] it was 200 µmol/kg.

Regarding `O=C1CCCN1` [2-PYRROLIDONE], the ED50 in the assay listed under Mus musculus [9] is more than 1000 µmol/kg; in the assay with Mus musculus [10], 540 µmol/kg; in the assay filed under Mus musculus [11] it was more than 1000 µmol/kg; in the assay filed under Mus musculus [12] it was more than 1000 µmol/kg.

With `O=C(O)C1CCNCC1` [ISONIPECOTIC ACID], in the assay listed under Mus musculus [11], the ED50 was more than 1000 µmol/kg.

As for `O=C(O)C1CCCNC1` (stereo not drawn) [NIPECOTIC ACID], the ED50 in the assay listed under Mus musculus [11] and in the assay listed under Mus musculus [12] was more than 1000 µmol/kg each time.

On to `C=CC(N)CCC(=O)O` (stereo not drawn) [VIGABATRIN], for which the “No. of mice protected” value in the assay on Mus musculus [5] turned out to be 3; in the assay with Mus musculus [6] it was 0; with Mus musculus [7], 4; in the assay on Mus musculus [8], 4. For the same compound, the ED50 in the assay listed under Mus musculus [12] was more than 1000 µmol/kg; in the assay listed under Mus musculus [13] it was more than 1000 µmol/kg; in the assay filed under Mus musculus [3], 210 µmol/kg; in the assay listed under Mus musculus [4], 220 µmol/kg.

Broadly, the ED50 is the dose that gives a 50% effect, or the effect in half of the subjects. A lower ED50 goes with greater potency.

The record behind these values is ChEMBL document CHEMBL1133497, “Design and synthesis of anticonvulsive agents as gamma-vinyl GABA-based potential dual acting prodrugs and their biological activities” (2000).
